Key:
[1] = test system: PrP^Sc in GT1 cells chronically infected with RML prion (ScGT1); type: cell-based, mouse; settings: drug 20 μM, 4 days, vs vehicle control, densitometry normalized to β-actin
[2] = test system: N2a, ScN2a, GT1, ScGT1 cells
[3] = test system: PrP^Sc in GT1 cells chronically infected with 22L prion strain (ScGT1 22L); type: cell-based, mouse; settings: ScGT1 cells infected with 22L prion strain, drug 20 μM, 4 days, vs vehicle control
[4] = test system: PrP^Sc in N2a cells chronically infected with RML prion strain (ScN2a); type: cell-based, mouse

Compound: Nc1c(C(=O)c2ccc[nH]2)cnn1-c1ccc(F)cc1 [Compound G]
- reduction of PrP^Sc accumulation/levels [1]: about 50%

Compound: Nc1c(C(=O)c2c[nH]c3ccccc23)cnn1-c1ccccc1 [Compound 3, (5-Amino-1-phenyl-1H-pyrazol-4-yl)-(1H-indol-3-yl)-methanone]
- citotoxicity assessment [2]: discarded

Compound: Nc1c(C(=O)C2CCNCC2)cnn1-c1ccc(OC(F)(F)F)cc1 [Compound 5, [5-Amino-1-(4-trifluoromethoxy-phenyl)-1H-pyrazol-4-yl]-piperidin-4-yl-methanone]
- reduction of PrP^Sc levels [3]: 35%
- reduction in PrP^Sc levels ([4]; RML-infected ScN2a cells, drug 20 μM, 4 days, vs vehicle control): 60%
- PrP^Sc reduction with compound dissolved in different drug vehicles ([4]; ScN2a cells, vehicles PBS, H2O, NaCl and DMSO): able to reduce PrP^Sc in all drug vehicles tested
- reduction of PrP^Sc accumulation/levels [1]: about 60%
